Assay results from US10208064B2, “Inhibitors of the renal outer medullary potassium channel” (MERCK SHARP & DOHME CORP., priority 2014, dated 2019).
pIC50: −log10 of the molar value.

What follows are molecules tested against ROMK (Kir1.1) channel (Homo sapiens (Human), UniProt P48048) (assay: Thallium Flux Assay).
Chain of ROMK (Kir1.1) channel (P48048 whole entry): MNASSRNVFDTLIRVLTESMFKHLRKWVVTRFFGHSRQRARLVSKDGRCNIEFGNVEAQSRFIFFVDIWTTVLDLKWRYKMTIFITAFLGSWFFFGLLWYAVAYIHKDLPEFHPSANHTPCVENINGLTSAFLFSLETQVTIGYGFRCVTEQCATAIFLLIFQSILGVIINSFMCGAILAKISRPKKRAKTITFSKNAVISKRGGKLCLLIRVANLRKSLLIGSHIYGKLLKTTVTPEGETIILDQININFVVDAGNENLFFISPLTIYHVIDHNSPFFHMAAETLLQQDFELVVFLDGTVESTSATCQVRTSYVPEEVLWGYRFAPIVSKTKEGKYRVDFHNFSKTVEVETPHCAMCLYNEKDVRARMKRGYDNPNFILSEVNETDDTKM
Format: cell-based
Protocol: The following Thallium Flux Assay was performed on each of the final product compounds in the Examples.
A Thallium Flux Assay was performed on the compounds of the Examples. This assay has been described previously; see, e.g., PCT Published Application WO 2013/062900.
`CC1=C(N2CCC3(CCN(CC(O)c4ccc5c(c4)[C@H](C)n4nnnc4-5)CC3)C2=O)COC1=O` (stereo partly drawn) [Example 27A, 8-(2-hydroxy-2-((S)-5-methyl-5H-tetrazolo[5,1-α]isoindol-7-yl)ethyl)-2-(4-methyl-5-oxo-2,5-dihydrofuran-3-yl)-2,8-diazaspiro[4.5]decan-1-one] gave a pIC50 of 7.06.
With `CC1=C(N2CCC3(CCN(CC(O)c4ccc5c(c4)[C@@H](C)n4nnnc4-5)CC3)C2=O)COC1=O` (stereo partly drawn) [Example 27B, 8-(2-hydroxy-2-((R)-5-methyl-5H-tetrazolo[5,1-α]isoindol-7-yl)ethyl)-2-(4-methyl-5-oxo-2,5-dihydrofuran-3-yl)-2,8-diazaspiro[4.5]decan-1-one] the pIC50 was 7.57.
Molecule `CC1=C(N2CCC3(CCN(C[C@H](O)c4ccc5c(c4)[C@@H](C)n4nnnc4-5)CC3)C2=O)COC1=O` [Example 27C, 8-((R)-2-hydroxy-2-((R)-5-methyl-5H-tetrazolo[5,1-a]isoindol-7-yl)ethyl)-2-(4-methyl-5-oxo-2,5-dihydrofuran-3-yl)-2,8-diazaspiro[4.5]decan-1-one] has a pIC50 of 7.44.
Molecule `CC1=C(N2CCC3(CCN(C[C@@H](O)c4ccc5c(c4)[C@@H](C)n4nnnc4-5)CC3)C2=O)COC1=O` [Example 27D, 8-((S)-2-hydroxy-2-((R)-5-methyl-5H-tetrazolo[5,1-a]isoindol-7-yl)ethyl)-2-(4-methyl-5-oxo-2,5-dihydrofuran-3-yl)-2,8-diazaspiro[4.5]decan-1-one] has a pIC50 of 7.54.
Work on `CC1=C(N2CCC3(CCN([C@H](CO)c4ccc5c(ccc6nnnn65)c4)CC3)C2=O)COC1=O` [Example 28A, (S)-8-(2-hydroxy-1-(tetrazolo[1,5-a]quinolin-7-yl)ethyl)-2-(4-methyl-5-oxo-2,5-dihydrofuran-3-yl)-2,8-diazaspiro[4.5]decan-1-one] yielded a pIC50 of 7.36.
For `CC1=C(N2CCC3(CCN(C(CO)c4ccc5c(c4)CCc4nnnn4-5)CC3)C2=O)COC1=O` (centres unmarked) [Example 29, 8-(1-(4,5-dihydrotetrazolo[1,5-a]quinolin-7-yl)-2-hydroxyethyl)-2-(4-methyl-5-oxo-2,5-dihydrofuran-3-yl)-2,8-diazaspiro[4.5]decan-1-one], the pIC50 was 6.38.
Work on `CC1=C(N2CCC3(CCN(CCc4ccc5c(c4)Cn4nnnc4-5)CC3)C2=O)COC1=O` [Example 30, 8-(2-(5H-tetrazolo[5,1-a]isoindol-7-yl)ethyl)-2-(4-methyl-5-oxo-2,5-dihydrofuran-3-yl)-2,8-diazaspiro[4.5]decan-1-one] yielded a pIC50 of 8.22.
`CO[C@@H](CN1CCC2(CC1)CCN(C1=C(C)C(=O)OC1)C2=O)c1ccc2c(c1)Cn1nnnc1-2` [Example 31, (R)-8-(2-methoxy-2-(5H-tetrazolo[5,1-a]isoindol-7-yl)ethyl)-2-(4-methyl-5-oxo-2,5-dihydrofuran-3-yl)-2,8-diazaspiro[4.5]decan-1-one] gave a pIC50 of 6.62.
